The results in this text go back to patent US5892026A, “High Trehalose content syrup” (Kabushiki Kaisha Hayashibara Seibutsu Kagaku Kenkyujo, priority 1995, dated 1999).

In brackets after ≈: the same amount, converted by molar mass. Where two headings read alike, the source gives them in different places.

The data set can be described thus: Water solubility of trehalose at ambient temperature (Experiment 1). Conditions: for solubility thermodynamic at 24 h: water. It is filed as physicochemical. On the procedure:
The water solubility of trehalose at ambient temperature was studied by placing into a glass beaker 10 parts by weight of water and 20 parts by weight of hydrous crystalline trehalose, incubating the mixture under stirring conditions at 10°, 15°, 20°, 25°, 30° or 40° C. for 24 hours in an incubator, filtering the resulting mixture, measuring the trehalose concentration of the filtrate, and determining the water solubility of trehalose in an anhydrous form in 100 g water at each temperature.

On to `OC[C@H]1O[C@H](O[C@H]2O[C@H](CO)[C@@H](O)[C@H](O)[C@H]2O)[C@H](O)[C@@H](O)[C@@H]1O` [Trehalose, α,α-trehalose], for which the “water solubility / crystallization of trehalose (in words)” value (ambient temperature) was “dissolves in water in a relatively low concentration and readily crystallizes at ambient temperature”. Further, the solubility thermodynamic at 24 h is, setting by setting: (10 °C, anhydrous form, read-out: trehalose content (g) dissolved in 100 g water) 553 mg/mL (≈ 1620 mM); (15 °C, anhydrous form, read-out: trehalose content (g) dissolved in 100 g water) 618 mg/mL (≈ 1810 mM); (20 °C, anhydrous form, read-out: trehalose content (g) dissolved in 100 g water) 689 mg/mL (≈ 2010 mM); (25 °C, anhydrous form, read-out: trehalose content (g) dissolved in 100 g water) 773 mg/mL (≈ 2260 mM); (30 °C, anhydrous form, read-out: trehalose content (g) dissolved in 100 g water) 866 mg/mL (≈ 2530 mM); (40 °C, anhydrous form, read-out: trehalose content (g) dissolved in 100 g water) 1090 mg/mL (≈ 3190 mM). Besides, the solubility thermodynamic at 24 h by setting is: (saturated in water, 10 °C, read-out: trehalose concentration (w/w %)) 356 mg/mL (≈ 1040 mM); (saturated in water, 15 °C, read-out: trehalose concentration (w/w %)) 382 mg/mL (≈ 1120 mM); (saturated in water, 20 °C, read-out: trehalose concentration (w/w %)) 408 mg/mL (≈ 1190 mM); (saturated in water, 25 °C, read-out: trehalose concentration (w/w %)) 436 mg/mL (≈ 1270 mM); (saturated in water, 30 °C, read-out: trehalose concentration (w/w %)) 464 mg/mL (≈ 1360 mM); (saturated in water, 40 °C, read-out: trehalose concentration (w/w %)) 522 mg/mL (≈ 1520 mM).
